In ChEMBL document CHEMBL1833834, “Clonal Rett Syndrome cell lines to test compounds for activation of wild-type MeCP2 expression” (Bioorg Med Chem Lett, 2011) one finds Activity data, which are given here for 9 compounds.

Calls of active or inactive are those of the source. No cut-off for these calls is given here.

Type in all cases: functional, cell-based
A short description of test [1]: Reactivation of MeCp2 […] expression in human GM11272 cells at 10 to 100 nM by PCR method.
The nature of test [2]: Reactivation of MeCp2 […] expression in human GM11272 cells after 6 days by PCR method.
A short description of test [3]: Reactivation of MeCp2 […] expression in human GM11272 cells at 1 to 100 nM by PCR method.
A short description of test [4]: Reactivation of MeCp2 […] expression in human GM11272 cells at 1 to 10000 nM by PCR method.

Turning to `O=C(O)[C@H](Cc1c[nH]c2ccccc12)N1C(=O)c2ccccc2C1=O`, the outcome in test [1] was inactive.
For the compound `CCC(=O)CCCCC[C@@H]1NC(=O)[C@H]2CCCCN2C(=O)[C@H]([C@@H](C)CC)NC(=O)[C@H](Cc2cn(OC)c3ccccc23)NC1=O`, in test [2], the result was inactive.
For `CC(/C=C/C(=O)NO)=C\[C@@H](C)C(=O)c1ccc(N(C)C)cc1`, in test [3], the outcome was inactive.
Same read-out and setting: the value for `O=c1ncccn1[C@@H]1O[C@H](CO)[C@@H](O)[C@H]1O` was “inactive”.
As to `Nc1ccccc1NC(=O)c1ccc(CNC(=O)OCc2cccnc2)cc1`, the result in test [2] was inactive.
For `Cc1[nH]c2ccccc2c1CCNCc1ccc(/C=C/C(=O)NO)cc1`, the result in test [3] was inactive.
For the compound `Nc1ncn([C@H]2C[C@H](O)[C@@H](CO)O2)c(=O)n1`, the result in test [2] and in test [3] was inactive.
`CCCC(CCC)C(=O)O`: the result in test [4] was inactive.
In the case of `O=C(CCCCCCC(=O)Nc1ccccc1)NO`, in test [1], the result was inactive.
